Where two headings read alike, the source gives them in different places.
Columns and labels:
[1] = tested on: CHO cells, permeabilized by treatment with lysolecithin; test: Polymerase substrate function in permeabilized cells
streptavidin = streptavidin (Streptomyces avidinii, UniProt P22629); details: affinity of streptavidin for biotin; cited from earlier work
avidin = avidin (Gallus gallus, UniProt P02701); details: cited from earlier work
Streptavidin-Sepharose = Streptavidin-Sepharose (Streptomyces avidinii, UniProt P22629)
Description: Its preparation and purification is described in Hoffman, et al., Proc. Natl. Acad. Sci., 77, 4666 (1980).

Chain of Streptavidin-Sepharose (P22629 25-183): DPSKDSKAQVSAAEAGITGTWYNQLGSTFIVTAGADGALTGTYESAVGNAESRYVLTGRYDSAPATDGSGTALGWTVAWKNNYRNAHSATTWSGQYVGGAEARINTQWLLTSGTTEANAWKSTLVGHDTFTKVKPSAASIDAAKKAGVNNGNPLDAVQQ
Chain of avidin (P02701 25-152): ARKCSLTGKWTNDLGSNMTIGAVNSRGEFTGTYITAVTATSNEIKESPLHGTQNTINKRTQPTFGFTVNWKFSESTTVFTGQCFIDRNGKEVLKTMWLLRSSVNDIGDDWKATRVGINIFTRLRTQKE
Chain of streptavidin (P22629 25-183): as the sequence (P22629 25-183) above

## O=C(CCCCC1SCC2NC(=O)NC21)NC/C=C/c1cn(C2CC(O)C(COP(=O)(O)OP(=O)(O)OP(=O)(O)O)O2)c(=O)[nH]c1=O (stereo not shown) [Bio-dUTP, biotinyl-dUTP]
[1]
  polymerase substrate function: function as a polymerase substrate

## O=C(O)CCCC[C@@H]1SC[C@@H]2NC(=O)N[C@@H]21 [biotin]
streptavidin
  Kassn: 10^15

## N=C1N[C@H]2[C@H](CS[C@H]2CCCCC(=O)O)N1 [iminobiotin]
avidin
  binding to avidin relative to biotin: less tightly than biotin

## Iminobiotinyl-dUTP [^3H-IB-dUTP]
Streptavidin-Sepharose; Load - 10 mM Tris-HCl, 8.3, 50 mM NaCl
  % Retained on SA-Sepharose: 100%
Streptavidin-Sepharose; eluent (1) 0.1 M NaCl
  % Retained on SA-Sepharose: 100%
Streptavidin-Sepharose; eluent (2) 1.0 M NaCl
  % Retained on SA-Sepharose: 100%
Streptavidin-Sepharose; eluent (3) 8 M Urea
  % Retained on SA-Sepharose: 97.5%
Streptavidin-Sepharose; eluent (4) 6 M guanidine-HCl
  % Retained on SA-Sepharose: 97.0%
Streptavidin-Sepharose; eluent (5) 50 mM NH4-acetate, pH 4.0
  % Retained on SA-Sepharose: <0.01%
Streptavidin-Sepharose; eluent (6) 50 mM NH4-acetate, pH 4.0 2 mM biotin
  % Retained on SA-Sepharose: <0.01%

— patent EP0329198B1, “Base modified oligo- and polynucleotides and methods of preparing and using same” (priority 1981, dated 1982)
